From article PMC8713164, “Development of a 1,2,4-Triazole-Based Lead Tankyrase Inhibitor: Part II” (Journal of Medicinal Chemistry, 2021)
≈ marks a conversion by molar mass, not a printed value. Read-outs that look alike come from different tables or passages of the source.

Experiments:
TNKS1 = target: T1, TNKS1 (Homo sapiens, UniProt O95271); test: TNKS1 biochemical assay (unreacted NAD+ fluorescence); conditions: TNKS1 20 nM, 10 μM NAD+, 20 h
T1 construct: TNKS1 (residues 1030–1317); made in house

PARP12 = target: T2, PARP12 (Homo sapiens, UniProt Q9H0J9); test: PARP12 biochemical assay; conditions: >>: no inhibition detected; concentration limited by DMSO tolerance
T2 construct: made in house
Method: (§1) All reactions were performed at ambient temperature.
(§2) The assay conditions for the other PARP enzymes were used as previously described.[39]

PARP1/2/3/4/10/12/14/15 = test: PARP enzyme panel, summary line of Table 5; format: biochemical; conditions: one bound for all eight PARPs
Method: as §1, §2

TNKS2 = target: T3, TNKS2 (Homo sapiens, UniProt Q9H2K2); test: TNKS2 biochemical assay (unreacted NAD+ fluorescence)
T3 construct: TNKS2 (residues 873–1162); made in house
T3 sequence (Q9H2K2 873-1162): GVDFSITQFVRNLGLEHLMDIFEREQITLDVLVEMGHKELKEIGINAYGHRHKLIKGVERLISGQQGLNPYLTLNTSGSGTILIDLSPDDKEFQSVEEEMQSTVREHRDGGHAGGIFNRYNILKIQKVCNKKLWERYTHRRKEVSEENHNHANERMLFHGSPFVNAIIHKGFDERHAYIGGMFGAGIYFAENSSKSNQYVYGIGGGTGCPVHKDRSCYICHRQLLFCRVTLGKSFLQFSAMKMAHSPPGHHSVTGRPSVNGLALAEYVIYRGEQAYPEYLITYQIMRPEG
Method: New compounds were prepared in half-log dilution series, and the reactions were carried out in quadruplicates with protein and compound controls to exclude the effect of compound autofluorescence. All reactions were performed at ambient temperature. TNKS1 (20 nM) or TNKS2 (5 nM) was incubated for 20 h in assay buffer (50 mM Bis-Tris propane (BTP), pH 7.0, 0.5 mM Tris(2-carboxyethyl)phosphine (TCEP), 0.01% Triton X-100) with compound and 10 μM or 500 nM NAD^+, respectively.

PARP2 = target: T4, PARP2 (Homo sapiens, UniProt Q9UGN5); test: PARP2 biochemical assay; conditions: > under 50% inhibition
T4 construct: made in house
Method: as §1, §2

PARP14 = target: T5, PARP14 (Homo sapiens, UniProt Q460N5); test: PARP14 biochemical assay; conditions: > under 50% inhibition
T5 construct: made in house
Method: as §1, §2

kinetic solubility = format: physicochemical; conditions: PBS pH = 7
Method: (§3) Kinetic solubility, microsomal stability, and plasma stability were determined following our internal protocol (Symeres). The Caco-2 and PPB determinations were performed by Cyprotex.

PARP1 = target: T6, PARP1 (Homo sapiens, UniProt P09874); test: PARP1 biochemical assay; conditions: > under 50% inhibition
T6 construct: made in house
Method: as §1, §2

COLO 320DM cells [1] = test: Western blot of cytoplasmic and nuclear lysates of treated COLO 320DM cells; format: cell-based, human
Method: (§4) After 5 days, the antiproliferative effect of compound treatment was measured at 490 nm. Mean value ± standard deviation (SD) for one representative experiment of more than three repeated assays, each with six replicates, are shown. […] (b) Representative immunoblots of cytoplasmic TNKS1/2, AXIN1, AXIN2, and cytoplasmic and nuclear transcriptionally active β-catenin (non-phospho) and β-catenin. […] For (b) and (c), control = 0.001% DMSO. (c) Real-time RT-qPCR analyses of WNT/β-catenin signaling target genes (AXIN2, DKK1, NKD1, and APCDD1). Boxplots show median, first and third quartiles, and maximum and minimum whiskers for combined data from three independent experiments with three replicates each. Dotted lines depict the control mean value = 1. For (a) and (c), analysis of variance (ANOVA) tests (Holm–Sidak method, versus control) are indicated by *** (p < 0.001) and * (p < 0.05), while ANOVA on ranks tests (Dunn’s method, versus control) are indicated by ^† (p < 0.05).
Western blot analysis of nuclear and cytoplasmic lysates from compound-treated COLO 320DM cells was performed as previously described.[39],[50]

in vitro = in vitro ADME; conditions: human, Caco-2
Method: as §3

mouse plasma stability = format: in vitro ADME; conditions: read-out: mouse plasma stability t1/2
Method: as §3

[2] = microsomal stability, mouse; format: in vitro ADME; conditions: microsomes
Method: as §3

hERG = target: T7, hERG (Homo sapiens, UniProt Q12809); test: hERG inhibition
T7 construct: Eurofins (Cerep), contract assay
Method: (§5) A safety panel (Cerep) of 44 selected targets (n = 2) including hERG Inhibition using 10 μM 24 was performed by Eurofins. Ames and CYP3A4 inhibition assays were performed by Cyprotex, and the PXR assay (CYP induction) was performed at Admescope. The PARP assays are described below.

[3] = system: Cerep Safety panel 44 targets; test: Cerep safety panel of 44 selected targets; conditions: 10 μM
Method: as §5

PARP4 = target: T8, PARP4 (Homo sapiens, UniProt Q9UKK3); test: PARP4 biochemical assay; conditions: > under 50% inhibition
T8 construct: made in house
Method: as §1, §2

[4] = microsomal stability, dog; format: in vitro ADME; conditions: microsomes
Method: as §3

[5] = mouse plasma protein binding; format: in vitro ADME; conditions: read-out: mouse PPB (converted)
Method: as §3

PARP10 = target: T9, PARP10 (Homo sapiens, UniProt Q53GL7); test: PARP10 biochemical assay; conditions: >>: no inhibition detected
T9 construct: made in house
Method: as §1, §2

WNT/β-catenin signaling = test: cellular (HEK293) WNT/β-catenin signaling luciferase reporter assay; format: cell-based, human; conditions: for IC50: Homo sapiens
COLO 320DM cells [6] = test: real-time qRT-PCR of WNT/β-catenin target genes in COLO 320DM cells; format: cell-based, human; conditions: dose-dependent
Method: as §4

T1 sequence (O95271 1030-1317): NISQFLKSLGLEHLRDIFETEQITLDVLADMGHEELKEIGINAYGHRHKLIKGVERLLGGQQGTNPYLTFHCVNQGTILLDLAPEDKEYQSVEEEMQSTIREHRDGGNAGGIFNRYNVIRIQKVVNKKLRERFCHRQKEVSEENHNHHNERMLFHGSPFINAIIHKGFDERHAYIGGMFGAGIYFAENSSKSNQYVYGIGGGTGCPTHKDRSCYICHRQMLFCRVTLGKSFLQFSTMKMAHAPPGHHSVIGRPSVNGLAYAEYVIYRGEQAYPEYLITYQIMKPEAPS
T7 sequence (Q12809 whole entry): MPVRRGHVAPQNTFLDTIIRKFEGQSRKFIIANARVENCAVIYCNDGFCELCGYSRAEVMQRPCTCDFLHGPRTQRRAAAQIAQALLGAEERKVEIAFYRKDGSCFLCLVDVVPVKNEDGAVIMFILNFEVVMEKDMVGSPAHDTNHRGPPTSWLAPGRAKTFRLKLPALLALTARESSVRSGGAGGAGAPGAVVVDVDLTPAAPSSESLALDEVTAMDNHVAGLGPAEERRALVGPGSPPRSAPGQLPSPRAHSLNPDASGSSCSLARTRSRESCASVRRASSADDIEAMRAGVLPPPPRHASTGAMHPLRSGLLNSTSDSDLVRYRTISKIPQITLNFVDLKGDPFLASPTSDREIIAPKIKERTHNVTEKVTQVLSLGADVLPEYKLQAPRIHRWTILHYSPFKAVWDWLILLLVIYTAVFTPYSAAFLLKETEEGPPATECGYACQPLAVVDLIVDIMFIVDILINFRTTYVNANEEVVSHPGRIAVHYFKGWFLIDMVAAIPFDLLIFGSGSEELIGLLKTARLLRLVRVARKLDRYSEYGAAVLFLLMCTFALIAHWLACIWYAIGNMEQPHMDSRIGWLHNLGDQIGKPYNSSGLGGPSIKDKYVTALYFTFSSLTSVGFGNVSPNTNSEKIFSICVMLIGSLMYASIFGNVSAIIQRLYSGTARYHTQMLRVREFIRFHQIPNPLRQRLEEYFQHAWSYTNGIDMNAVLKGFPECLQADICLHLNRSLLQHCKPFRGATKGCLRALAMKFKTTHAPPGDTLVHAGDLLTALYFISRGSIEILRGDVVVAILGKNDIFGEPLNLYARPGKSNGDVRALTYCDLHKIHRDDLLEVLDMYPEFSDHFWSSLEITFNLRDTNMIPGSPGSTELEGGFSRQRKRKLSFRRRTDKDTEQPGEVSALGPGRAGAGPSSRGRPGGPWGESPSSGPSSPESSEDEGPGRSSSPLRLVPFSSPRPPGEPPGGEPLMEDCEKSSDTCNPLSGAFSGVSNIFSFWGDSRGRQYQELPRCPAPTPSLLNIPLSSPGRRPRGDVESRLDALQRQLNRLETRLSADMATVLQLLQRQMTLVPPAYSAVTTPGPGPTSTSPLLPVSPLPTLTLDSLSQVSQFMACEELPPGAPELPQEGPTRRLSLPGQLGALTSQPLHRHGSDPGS
T4 sequence (Q9UGN5 whole entry): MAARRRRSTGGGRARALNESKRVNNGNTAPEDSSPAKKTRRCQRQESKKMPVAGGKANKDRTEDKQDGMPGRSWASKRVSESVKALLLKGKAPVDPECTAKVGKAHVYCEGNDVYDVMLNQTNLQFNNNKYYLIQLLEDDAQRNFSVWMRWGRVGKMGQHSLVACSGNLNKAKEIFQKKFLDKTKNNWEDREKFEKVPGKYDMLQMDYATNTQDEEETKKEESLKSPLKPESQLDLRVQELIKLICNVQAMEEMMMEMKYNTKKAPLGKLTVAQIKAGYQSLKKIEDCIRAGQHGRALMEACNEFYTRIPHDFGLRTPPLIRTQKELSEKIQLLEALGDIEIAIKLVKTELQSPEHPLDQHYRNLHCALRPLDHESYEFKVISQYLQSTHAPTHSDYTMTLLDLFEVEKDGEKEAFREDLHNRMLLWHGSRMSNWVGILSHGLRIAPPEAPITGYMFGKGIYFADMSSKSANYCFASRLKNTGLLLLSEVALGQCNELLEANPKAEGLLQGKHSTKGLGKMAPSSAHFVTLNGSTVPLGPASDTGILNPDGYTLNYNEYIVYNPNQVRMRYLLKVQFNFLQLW
T9 sequence (Q53GL7 whole entry): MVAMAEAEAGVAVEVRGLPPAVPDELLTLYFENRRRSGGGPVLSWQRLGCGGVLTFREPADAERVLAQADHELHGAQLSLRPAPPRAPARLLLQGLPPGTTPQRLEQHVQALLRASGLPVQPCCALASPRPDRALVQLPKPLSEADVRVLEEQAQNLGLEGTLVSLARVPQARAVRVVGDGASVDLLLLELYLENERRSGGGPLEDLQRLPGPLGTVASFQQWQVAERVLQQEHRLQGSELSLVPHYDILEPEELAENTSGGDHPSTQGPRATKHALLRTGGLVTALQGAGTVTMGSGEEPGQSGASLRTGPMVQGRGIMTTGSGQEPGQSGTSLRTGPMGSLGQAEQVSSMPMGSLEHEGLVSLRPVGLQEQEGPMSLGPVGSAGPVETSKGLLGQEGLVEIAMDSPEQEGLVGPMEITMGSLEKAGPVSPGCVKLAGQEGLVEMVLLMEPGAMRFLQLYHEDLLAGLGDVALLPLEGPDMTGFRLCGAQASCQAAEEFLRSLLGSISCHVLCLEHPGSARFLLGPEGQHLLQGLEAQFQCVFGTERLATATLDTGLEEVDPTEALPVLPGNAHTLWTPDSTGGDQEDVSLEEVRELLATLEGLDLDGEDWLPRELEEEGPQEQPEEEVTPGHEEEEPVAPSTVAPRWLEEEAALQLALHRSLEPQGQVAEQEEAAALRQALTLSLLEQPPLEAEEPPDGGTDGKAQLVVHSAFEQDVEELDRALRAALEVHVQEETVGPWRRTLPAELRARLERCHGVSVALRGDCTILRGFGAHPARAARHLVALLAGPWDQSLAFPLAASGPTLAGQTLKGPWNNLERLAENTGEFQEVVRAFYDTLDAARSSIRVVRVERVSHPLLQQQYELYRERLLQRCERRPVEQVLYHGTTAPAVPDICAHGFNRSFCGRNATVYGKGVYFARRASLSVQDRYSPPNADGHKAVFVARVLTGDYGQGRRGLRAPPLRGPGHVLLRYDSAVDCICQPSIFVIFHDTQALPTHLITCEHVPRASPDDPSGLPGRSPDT
T5 sequence (Q460N5 whole entry): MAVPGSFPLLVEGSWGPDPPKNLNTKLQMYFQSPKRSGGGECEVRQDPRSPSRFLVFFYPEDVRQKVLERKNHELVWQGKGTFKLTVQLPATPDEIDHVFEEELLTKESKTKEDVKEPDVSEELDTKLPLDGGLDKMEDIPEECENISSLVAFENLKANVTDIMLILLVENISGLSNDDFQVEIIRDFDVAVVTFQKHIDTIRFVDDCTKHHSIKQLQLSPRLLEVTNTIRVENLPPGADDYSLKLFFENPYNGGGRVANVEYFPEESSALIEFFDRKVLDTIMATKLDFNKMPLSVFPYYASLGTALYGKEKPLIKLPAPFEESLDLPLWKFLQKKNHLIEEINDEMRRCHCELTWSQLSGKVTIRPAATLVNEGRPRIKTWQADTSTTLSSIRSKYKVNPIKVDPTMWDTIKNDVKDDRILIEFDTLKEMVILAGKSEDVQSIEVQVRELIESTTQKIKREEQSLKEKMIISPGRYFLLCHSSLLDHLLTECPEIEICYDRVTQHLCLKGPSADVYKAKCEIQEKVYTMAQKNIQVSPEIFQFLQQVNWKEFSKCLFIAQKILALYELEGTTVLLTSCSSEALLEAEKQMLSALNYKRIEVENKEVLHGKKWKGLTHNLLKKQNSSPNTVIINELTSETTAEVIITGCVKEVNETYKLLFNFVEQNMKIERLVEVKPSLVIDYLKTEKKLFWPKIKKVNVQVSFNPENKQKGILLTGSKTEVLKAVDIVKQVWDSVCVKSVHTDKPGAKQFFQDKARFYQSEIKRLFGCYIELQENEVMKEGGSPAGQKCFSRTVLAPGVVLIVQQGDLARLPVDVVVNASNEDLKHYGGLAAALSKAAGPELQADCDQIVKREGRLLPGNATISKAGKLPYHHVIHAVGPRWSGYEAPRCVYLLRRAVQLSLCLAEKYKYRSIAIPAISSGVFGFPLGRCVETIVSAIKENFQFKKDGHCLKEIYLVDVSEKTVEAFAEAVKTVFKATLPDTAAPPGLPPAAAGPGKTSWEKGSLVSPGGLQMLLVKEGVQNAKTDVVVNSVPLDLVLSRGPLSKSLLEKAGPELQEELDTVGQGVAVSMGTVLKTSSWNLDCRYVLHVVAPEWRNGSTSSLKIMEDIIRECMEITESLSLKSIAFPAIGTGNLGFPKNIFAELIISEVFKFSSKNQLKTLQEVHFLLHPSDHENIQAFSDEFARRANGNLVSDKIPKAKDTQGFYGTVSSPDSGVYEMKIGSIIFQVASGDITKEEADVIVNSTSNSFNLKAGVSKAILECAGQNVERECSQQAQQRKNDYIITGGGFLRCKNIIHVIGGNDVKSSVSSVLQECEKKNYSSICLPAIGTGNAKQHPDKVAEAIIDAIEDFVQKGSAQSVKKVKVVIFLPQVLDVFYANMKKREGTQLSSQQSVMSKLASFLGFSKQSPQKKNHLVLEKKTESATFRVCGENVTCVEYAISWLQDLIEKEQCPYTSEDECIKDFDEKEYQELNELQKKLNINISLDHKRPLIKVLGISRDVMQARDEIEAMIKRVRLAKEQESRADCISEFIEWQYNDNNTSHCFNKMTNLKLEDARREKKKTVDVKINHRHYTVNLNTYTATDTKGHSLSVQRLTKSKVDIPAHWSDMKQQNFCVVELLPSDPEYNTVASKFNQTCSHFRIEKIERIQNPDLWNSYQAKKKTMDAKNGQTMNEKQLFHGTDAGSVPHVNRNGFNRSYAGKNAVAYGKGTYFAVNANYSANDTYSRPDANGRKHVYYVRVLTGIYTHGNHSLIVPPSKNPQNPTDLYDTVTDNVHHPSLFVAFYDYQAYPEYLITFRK

SMILES: CCOc1ccc(-c2nnc([C@H]3C[C@H](NC(=O)c4cccc5nccnc45)C3)n2-c2ccccc2F)nc1 [Compound 24, N-(trans-3-(5-(5-Ethoxypyridin-2-yl)-4-(2-fluorophenyl)-4H-1,2,4-triazol-3-yl)cyclobutyl)quinoxaline-5-carboxamide]
- IC50 (TNKS1): 13 nM
- TNKS1 pIC50 ± SEM (TNKS1): 7.90 ± 0.054
- IC50 (PARP12): > 10000 nM
- IC50 (PARP1/2/3/4/10/12/14/15): > 10000 nM
- IC50 (TNKS2; IC50 TNKS2): 1.8 nM
- IC50 (TNKS2; IC50 TNKS2, TNKS2 5 nM, 500 nM NAD+, 20 h, quadruplicates, 95% confidence intervals in parentheses, 24: averages of multiple independent measurements): 1.6 nM
- TNKS2 pIC50 ± SEM (TNKS2; TNKS2 5 nM, 500 nM NAD+, 20 h): 2.0 (8.71 ± 0.069)
- IC50 (TNKS2; TNKS2 pIC50 ± SEM, TNKS2 5 nM, 500 nM NAD+, 20 h): 1.62 nM
- IC50 (TNKS2; read-out: IC50 TNKS2): 2 nM
- IC50 (PARP2): > 100000 nM
- IC50 (PARP14): > 100000 nM
- solubility kinetic at 1 h (kinetic solubility): 31 µM (≈ 15.8 µg/mL)
- IC50 (PARP1): > 100000 nM
- level of transcriptionally active β-catenin (nonphosphorylated) (COLO 320DM cells [1]; cytoplasmic and nuclear fractions): reduced
- TNKS1/2 protein levels (COLO 320DM cells [1]; dose-dependent, immunoblot): either increased or decreased
- AXIN1 and AXIN2 protein levels (COLO 320DM cells [1]; immunoblot): stabilized
- Papp A→B at 2 h, 10 µM (in vitro): 40.5 ×10⁻⁶ cm/s
- efflux ratio (in vitro): 0.64
- half-life (mouse plasma stability): > 2 h
- microsomal CLint at 1 h [2]: 22 µL/min/mg
- IC50 (hERG): > 25000 nM
- Cerep Safety panel 44 targets (overall result) [3]: clean
- Cerep Safety panel 44 targets inhibition, all targets ([3]; n = 2): < 50%
- IC50 (PARP4): > 100000 nM
- microsomal CLint at 1 h [4]: 3.8 µL/min/mg
- fraction unbound [5]: 0.0142
- IC50 (PARP10): > 10000 nM
- IC50 (WNT/β-catenin signaling; HEK293, read-out: HEK293 reporter assay pIC50 ± SEM (converted)): 0.603 nM
- IC50 (WNT/β-catenin signaling; HEK293, read-out: IC50 HEK293, HEK293 WNT/β-catenin signaling reporter assay, triplicates, 24: averages of multiple independent measurements): 0.63 nM
- efficacy in the cellular WNT/β-catenin signaling reporter assay relative to 1 (WNT/β-catenin signaling; times higher than 1): approximately 30 times
- transcripts of WNT/β-catenin target genes AXIN2, DKK1, NKD1, APCDD1 (COLO 320DM cells [6]): reduced levels
